No end group written: not given here.
Legend:
Type in all cases: cell-based
CaR2 = biological target: T1, CaR2 (Homo sapiens, UniProt Q5T6X5); assay: FLIPR assay of intracellular Ca^++ in HEK293 clone HEK-167B12-2.1 stably expressing CaR2; conditions: for FLIPR response (change of intracellular Ca^++ levels): initial ligand testing in the transfected cells; for effect on OC/Ca^++ activation of CaR2: OC and Ca^2+ pre-incubated with / in the presence of lead ion
T1 construct: expressed in transfected cells
T1 sequence (Q5T6X5 19-926): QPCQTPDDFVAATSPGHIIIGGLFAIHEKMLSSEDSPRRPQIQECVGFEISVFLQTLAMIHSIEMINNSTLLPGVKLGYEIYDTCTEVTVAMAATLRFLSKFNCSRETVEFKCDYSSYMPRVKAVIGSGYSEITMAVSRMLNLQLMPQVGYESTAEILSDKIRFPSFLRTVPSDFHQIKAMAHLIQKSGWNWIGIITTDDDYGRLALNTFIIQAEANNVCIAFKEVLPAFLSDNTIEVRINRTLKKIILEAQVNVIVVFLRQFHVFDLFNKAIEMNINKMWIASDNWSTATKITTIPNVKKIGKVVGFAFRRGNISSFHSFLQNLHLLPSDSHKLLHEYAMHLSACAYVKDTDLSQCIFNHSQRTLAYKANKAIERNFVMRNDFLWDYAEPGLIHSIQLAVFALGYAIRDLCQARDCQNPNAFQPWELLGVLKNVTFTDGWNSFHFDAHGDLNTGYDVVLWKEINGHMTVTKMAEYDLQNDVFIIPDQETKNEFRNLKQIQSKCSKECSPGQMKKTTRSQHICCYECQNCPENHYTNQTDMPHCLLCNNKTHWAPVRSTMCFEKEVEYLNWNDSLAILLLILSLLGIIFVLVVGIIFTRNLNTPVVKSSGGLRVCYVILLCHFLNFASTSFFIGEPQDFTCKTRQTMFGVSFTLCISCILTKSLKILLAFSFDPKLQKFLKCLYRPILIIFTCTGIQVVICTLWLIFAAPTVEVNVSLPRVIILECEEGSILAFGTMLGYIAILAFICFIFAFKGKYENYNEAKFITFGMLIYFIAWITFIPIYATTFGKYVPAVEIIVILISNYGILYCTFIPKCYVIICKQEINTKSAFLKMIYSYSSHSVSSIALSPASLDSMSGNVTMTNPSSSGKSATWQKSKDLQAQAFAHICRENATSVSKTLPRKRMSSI
Procedure: To facilitate pharmacological experimentation, CaR2 cDNA was cloned into the mammalian expression vector pcDNA 3.1 (+) Neo with or without a COOH-terminal FLAG epitope. The transgene was introduced into the HEK293 cell line and stable transfectants were identified. These clones were analyzed for CaR2 expression by qPCR and Western blotting to identify those clones that were suitable for ligand identification. The clone HEK-167B12-2.1 was chosen for further experimentation.
Based on the homology to the characterized goldfish odorant receptor 5.24, initial studies investigated the ability of 18 naturally occurring amino acids to trigger changes of intracellular Ca^++ levels in the transfected cells, as measured with a fluorescent imaging plate reader (FLIPR).
(§1) Intracellular Ca^++ was measured using a fluorometric imaging plate reader (FLIPR) [Molecular Devices]. Cells were seeded at a density of 1×10^5/well (96-well plate) or 1×10^4/well (384-well plate) in collagen coated plates and incubated overnight at 36.9° C. with 5% CO2. Medium was aspirated from the plates and replaced with equal volumes of a no wash calcium dye (Molecular Devices) and modified Hank's buffered saline solution [Ca^2+-free, Mg^2+-free] (140 mM NaCl, 5.4 mM KCl, 0.64 mM KH2PO4, 3 mM NaHCO3, 5.5 mM C6H12O6, 20 mM HEPES, 2.5 mM Caprylic acid (or 2.5 mM probenecid)). The plates were incubated for 1 hour at 36.9° C. with 5% CO2. FLIPR was used to measure changes in intracellular calcium as relative fluorescence upon activation by ligand.

CaR = biological target: T2, CaR (Homo sapiens, UniProt P41180); assay: Ca^++ response of HEK 293 cells that express the previously characterized CaR
T2 construct: expressed in transfected cells; host or cells: HEK 293
T2 sequence (P41180 20-1078): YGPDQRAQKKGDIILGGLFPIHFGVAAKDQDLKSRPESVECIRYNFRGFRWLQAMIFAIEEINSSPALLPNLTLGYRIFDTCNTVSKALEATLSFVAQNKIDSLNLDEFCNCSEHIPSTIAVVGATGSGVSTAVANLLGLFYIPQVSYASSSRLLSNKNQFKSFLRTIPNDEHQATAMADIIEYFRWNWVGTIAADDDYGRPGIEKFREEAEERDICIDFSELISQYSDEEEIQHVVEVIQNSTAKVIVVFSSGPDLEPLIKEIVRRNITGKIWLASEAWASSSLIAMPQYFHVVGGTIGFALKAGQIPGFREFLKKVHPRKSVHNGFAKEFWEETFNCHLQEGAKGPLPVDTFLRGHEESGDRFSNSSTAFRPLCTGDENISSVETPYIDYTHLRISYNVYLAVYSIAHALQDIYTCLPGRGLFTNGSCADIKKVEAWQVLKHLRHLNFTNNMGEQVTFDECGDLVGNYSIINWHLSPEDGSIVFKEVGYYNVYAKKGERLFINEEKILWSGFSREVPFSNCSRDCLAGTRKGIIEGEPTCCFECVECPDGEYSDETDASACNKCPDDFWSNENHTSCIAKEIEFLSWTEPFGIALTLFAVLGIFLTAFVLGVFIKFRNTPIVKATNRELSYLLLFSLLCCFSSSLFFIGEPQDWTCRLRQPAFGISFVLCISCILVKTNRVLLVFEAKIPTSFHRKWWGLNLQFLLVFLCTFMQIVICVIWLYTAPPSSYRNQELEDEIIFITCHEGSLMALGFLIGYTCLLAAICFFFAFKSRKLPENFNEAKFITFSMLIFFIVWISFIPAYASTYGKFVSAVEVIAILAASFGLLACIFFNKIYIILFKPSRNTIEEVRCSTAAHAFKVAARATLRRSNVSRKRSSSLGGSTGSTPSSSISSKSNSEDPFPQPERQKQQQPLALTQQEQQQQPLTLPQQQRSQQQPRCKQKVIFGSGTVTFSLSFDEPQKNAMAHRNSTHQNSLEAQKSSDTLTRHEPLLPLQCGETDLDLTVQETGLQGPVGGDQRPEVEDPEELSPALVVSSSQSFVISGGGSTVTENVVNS
Procedure: as §1
(§2) Also, the apical side of cells lining tubules in Henle's loop in kidney and in epithelial cells lining prostate ducts are microenvironments where CaR2 would encounter higher than standard extracellular Ca^++.

parental HEK293 cells = assay: FLIPR assay of intracellular Ca^++ in parental HEK293 cells that do not express CaR2
Procedure: as §1, §2

`[Ca+2]` [Ca^++, calcium] was tested. Which “activation of CaR2” value (CaR2; 10 mM Ca^++) did it give?
Its value is “modest activation”.

And the “activation of CaR2” value (CaR2; 40 mM Ca^++)?
Its value is “robustly activated”.

What about the EC50 (CaR2; Ca^++ as activating ligand, clone expressing CaR2) of the same compound?
Its EC50 is 85 mM.

And the “calcium level causing a marked increase in fluorescence signal, hence intracellular Ca^++” value (CaR2; clone expressing CaR2)?
The value was > 20 mM.

What about the “FLIPR response (change of intracellular Ca^++ levels)” value (CaR2) of the same compound?
The value was “failed to elicit a positive FLIPR response”.

And the EC50 (CaR; transfected HEK 293 cells)?
Its EC50 is 4.1 mM.

What about the “increase in fluorescence signal by high calcium levels” value (parental HEK293 cells; parental cell line, >20 mM calcium) of the same compound?
The value was “not observed”.

How did the “FLIPR response (change of intracellular Ca^++ levels)” value (CaR2) turn out when `NCCCC(=O)O` [GABA] was run?
Its value is “failed to elicit a positive FLIPR response”.

With `CN[C@H](CC(=O)O)C(=O)O` [NMDA] as the compound, how does the “FLIPR response (change of intracellular Ca^++ levels)” value (CaR2) read?
Its value is “failed to elicit a positive FLIPR response”.

Which results are given for `[Pb+2]` [Pb^2+]?
effect on OC/Ca^++ activation of CaR2 (CaR2): reversed; effect on OC/Ca^++ activation of CaR2 (CaR2; listed as Pb^++): blocked

Which results are given for “osteocalcin (YLYQWLGAPVPYPDPLEPRREVCELNPDCDELADHIGFQEAYRRFYGPV; ends and bridges not checked; cysteine pairing not given here; UniProt P02818 52-100, looked up)”?
OC activation of CaR2 (CaR2; OC pre-incubated with 10 mM Ca^++): activates CaR2 when pre-incubated with 10 mM Ca^++ in a dose-dependent manner; effect of OC on CaR2 activation by calcium (CaR2; in the presence of osteocalcin): activated at lower calcium levels and the activation by high mM calcium was potentiated; synergistic effect of Ca^++ and osteocalcin on CaR2, dependence on pre-incubation (CaR2; pre-incubated versus both ligands added separately): only witnessed when calcium is pre-incubated with OC, but not when both ligands are added separately; synergistic effect of Ca^++ and osteocalcin (CaR; OC and Ca^++ added to HEK293 cells that express CaR): not observed; synergistic effect of Ca^++ and osteocalcin (parental HEK293 cells; OC and Ca^++ added to parental HEK293 cells): not observed

Reference: patent US20040082018A1, “Methods for using osteocalcin” (Athersys, Inc., priority 2002, published 2004)
